Results: US8404679B2, “Pyrrolidine derivatives as NK2 receptor antagonists” (Hoffmann-La Roche Inc., priority 2008, dated 2013)

target: T1, human NK2 receptor (Homo sapiens, UniProt P21452); test: [3H]SR48968 competition binding assay; details: [3H]SR48968 displacement, membranes of CHO cells stably expressing recombinant human NK2 receptor; Ki from IC50 by Cheng-Prussoff
T1 construct: purchased Perkin Elmer biosignal Inc. 6110510
T1 sequence (P21452 1-398): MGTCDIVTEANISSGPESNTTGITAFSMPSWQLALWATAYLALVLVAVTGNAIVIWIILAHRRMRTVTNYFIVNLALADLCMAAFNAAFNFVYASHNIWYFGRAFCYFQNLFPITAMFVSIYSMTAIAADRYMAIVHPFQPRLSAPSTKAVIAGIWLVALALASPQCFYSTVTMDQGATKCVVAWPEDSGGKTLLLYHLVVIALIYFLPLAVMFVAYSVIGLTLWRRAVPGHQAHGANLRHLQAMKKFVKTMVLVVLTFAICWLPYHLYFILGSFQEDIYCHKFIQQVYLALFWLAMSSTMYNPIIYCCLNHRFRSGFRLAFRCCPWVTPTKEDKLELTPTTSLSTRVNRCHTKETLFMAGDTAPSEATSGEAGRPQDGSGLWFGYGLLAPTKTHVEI
Summary of the method: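 Membranes from CHO cells stably expressing recombinant human NK2 were incubated 75 min at RT with [3H]SR48968 at its KD and 10 compound concentrations (0.0003–10 μM) in Tris-HCl pH 7.4, MnCl2, chymostatin, BSA. Filter-bound radioactivity was counted; Hill-fitted IC50 converted to Ki via Cheng-Prusoff.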

Row | Structure (SMILES) | Ki
1 | COc1ccc(C(=O)N(C)[C@@H]2CN(C(=O)c3ccc4occc4c3)C[C@H]2c2ccc(Cl)c(Cl)c2)cc1C(F)(F)F (racemic) [Example 48, rac-N-[(3S,4R)-1-(Benzofuran-5-carbonyl)-4-(3,4-dichloro-phenyl)-pyrrolidin-3-yl]-4-methoxy-N-methyl-3-trifluoromethyl-benzamide] | 5.36 nM
2 | CN(C(=O)c1cccc(Cl)c1)[C@@H]1CN(C(=O)N2CCN(S(C)(=O)=O)CC2)C[C@H]1c1ccc(Cl)c(Cl)c1 (racemic) [Example 11, rac-3-Chloro-N-[(3S,4R)-4-(3,4-dichloro-phenyl)-1-(4-methanesulfonyl-piperazine-1-carbonyl)-pyrrolidin-3-yl]-N-methyl-benzamide] | 14.3 nM
3 | COc1ccc(C(=O)N(C)[C@H]2CN(C(=O)C3CCN(CC4CC4)CC3)C[C@@H]2c2ccc(Cl)cc2)cc1C(F)(F)F (racemic) [Example 105, N-[(3RS,4SR)-4-(4-Chloro-phenyl)-1-(1-cyclopropylmethyl-piperidine-4-carbonyl)-pyrrolidin-3-yl]-4-methoxy-N-methyl-3-trifluoromethyl-benzamide] | 0.8 nM
4 | COc1cc(C(=O)N(C)[C@@H]2CN(C(=O)c3ccc(C#N)cc3)C[C@H]2c2ccc(Cl)c(Cl)c2)nc2ccccc12 (racemic) [Example 67, rac-4-Methoxy-quinoline-2-carboxylic acid [(3S,4R)-1-(4-cyano-benzoyl)-4-(3,4-dichloro-phenyl)-pyrrolidin-3-yl]-methyl-amide] | 52.9 nM
5 | COc1ccc(C(=O)N(C)[C@H]2CN(C(=O)C3CCN(C(=O)C4(C)CC4)CC3)C[C@@H]2c2ccc(Cl)cc2)cc1C(F)(F)F (racemic) [Example 87, N-{(3RS,4SR)-4-(4-Chloro-phenyl)-1-[1-(1-methyl-cyclopropanecarbonyl)-piperidine-4-carbonyl]-pyrrolidin-3-yl}-4-methoxy-N-methyl-3-trifluoromethyl-benzamide] | 0.8 nM
6 | CN(C(=O)c1ccc(F)c(C(F)(F)F)c1)[C@@H]1CN(C(=O)N2CCN(S(C)(=O)=O)CC2)C[C@H]1c1ccc(Cl)c(Cl)c1 (racemic) [Example 36, rac-N-[(3S,4R)-4-(3,4-Dichloro-phenyl)-1-(4-methanesulfonyl-piperazine-1-carbonyl)-pyrrolidin-3-yl]-4-fluoro-N-methyl-3-trifluoromethyl-benzamide] | 3.59 nM
7 | COc1ccc(C(=O)N(C)[C@@H]2CN(C(=O)c3cc(S(C)(=O)=O)ccc3F)C[C@H]2c2ccc(Cl)c(Cl)c2)cc1C(F)(F)F (racemic) [Example 49, rac-N-[(3S,4R)-4-(3,4-Dichloro-phenyl)-1-(2-fluoro-5-methanesulfonyl-benzoyl)-pyrrolidin-3-yl]-4-methoxy-N-methyl-3-trifluoromethyl-benzamide] | 2.53 nM
8 | CN(C(=O)c1cccc(C(F)(F)F)c1F)[C@@H]1CN(C(=O)N2CCN(S(C)(=O)=O)CC2)C[C@H]1c1ccc(Cl)c(Cl)c1 (racemic) [Example 22, rac-N-[(3S,4R)-4-(3,4-Dichloro-phenyl)-1-(4-methanesulfonyl-piperazine-1-carbonyl)-pyrrolidin-3-yl]-2-fluoro-N-methyl-3-trifluoromethyl-benzamide] | 4.63 nM
9 | COc1ccc(C(=O)N(C)[C@@H]2CN(C(=O)N3CCN(S(C)(=O)=O)[C@H](C)C3)C[C@H]2c2ccc(Cl)c(Cl)c2)cc1C(F)(F)F [Example 43] | 2.23 nM
10 | COc1ccc(C(=O)N(C)[C@H]2CN(C(=O)c3ccc(C#N)nc3)C[C@@H]2c2ccc(Cl)cc2)cc1C(F)(F)F (racemic) [Example 90, N-[(3RS,4SR)-4-(4-Chloro-phenyl)-1-(6-cyano-pyridine-3-carbonyl)-pyrrolidin-3-yl]-4-methoxy-N-methyl-3-trifluoromethyl-benzamide] | 11.7 nM
11 | CN(C(=O)c1ccc(Cl)c(C(F)(F)F)c1)[C@@H]1CN(C(=O)c2ccc(C#N)cc2)C[C@H]1c1ccc(Cl)c(Cl)c1 (racemic) [Example 72, rac-4-Chloro-N-[(3S,4R)-1-(4-cyano-benzoyl)-4-(3,4-dichloro-phenyl)-pyrrolidin-3-yl]-N-methyl-3-trifluoromethyl-benzamide] | 0.58 nM
12 | COc1ccc(C(=O)N(C)[C@@H]2CN(C(=O)N3CCN(S(C)(=O)=O)CC3)C[C@H]2c2ccc(Cl)c(Cl)c2)cc1Cl (racemic) [Example 33, rac-3-Chloro-N-[(3S,4R)-4-(3,4-dichloro-phenyl)-1-(4-methanesulfonyl-piperazine-1-carbonyl)-pyrrolidin-3-yl]-4-methoxy-N-methyl-benzamide] | 8.57 nM
13 | COc1ccc(C(=O)N2C[C@@H](N(C)C(=O)c3ccc(OC)c(C(F)(F)F)c3)[C@H](c3ccc(Cl)c(Cl)c3)C2)cc1 (racemic) [Example 44, rac-N-[(3S,4R)-4-(3,4-Dichloro-phenyl)-1-(4-methoxy-benzoyl)-pyrrolidin-3-yl]-4-methoxy-N-methyl-3-trifluoromethyl-benzamide] | 4.24 nM

More lines, now with the values ahead:

Row | Ki | Structure (SMILES)
14 | 0.8 nM | CN(C(=O)c1ccc(Cl)c(Br)c1)[C@H]1CN(C(=O)C2CCN(C(=O)C3(C)CC3)CC2)C[C@@H]1c1ccc(Cl)c(Cl)c1 (racemic) [Example 171, 3-Bromo-4-chloro-N-{(3RS,4SR)-4-(3,4-dichloro-phenyl)-1-[1-(1-methyl-cyclopropanecarbonyl)-piperidine-4-carbonyl]-pyrrolidin-3-yl}-N-methyl-benzamide]
15 | 0.4 nM | COc1ccc(C(=O)N(C)[C@H]2CN(C(=O)C3CCN(CCC#N)CC3)C[C@@H]2c2ccc(Cl)c(Cl)c2)cc1C(F)(F)F (racemic) [Example 142, N-[(3RS,4SR)-1-[1-(2-Cyano-ethyl)-piperidine-4-carbonyl]-4-(3,4-dichloro-phenyl)-pyrrolidin-3-yl]-4-methoxy-N-methyl-3-trifluoromethyl-benzamide]
16 | 52.7 nM | CN(C(=O)c1ccc(Cl)c(C(F)(F)F)c1)[C@H]1CN(C(=O)C2CCN(CC3CC3)CC2)C[C@@H]1c1ccc(Cl)cc1 [Example 153, 4-Chloro-N-[(3R,4S)-4-(4-chloro-phenyl)-1-(1-cyclopropylmethyl-piperidine-4-carbonyl)-pyrrolidin-3-yl]-N-methyl-3-trifluoromethyl-benzamide]
17 | 0.7 nM | COc1ccc(C(=O)N(C)[C@H]2CN(C(=O)C3CCN(S(=O)(=O)C4CC4)CC3)C[C@@H]2c2ccc(Cl)c(Cl)c2)cc1C(F)(F)F (racemic) [Example 141, N-[(3RS,4SR)-1-(1-Cyclopropanesulfonyl-piperidine-4-carbonyl)-4-(3,4-dichloro-phenyl)-pyrrolidin-3-yl]-4-methoxy-N-methyl-3-trifluoromethyl-benzamide]
18 | 67.9 nM | CN(C(=O)C(C)(C)c1ccc(F)cc1)[C@H]1CN(C(=O)C2CCN(C(=O)C3(C)CC3)CC2)C[C@@H]1c1ccc(Cl)c(Cl)c1 (racemic) [Example 125, N-{(3RS,4SR)-4-(3,4-Dichloro-phenyl)-1-[1-(1-methyl-cyclopropanecarbonyl)-piperidine-4-carbonyl]-pyrrolidin-3-yl}-2-(4-fluoro-phenyl)-N-methyl-isobutyramide]
19 | 0.8 nM | COc1ccc(C(=O)N(C)[C@H]2CN(C(=O)C3CCN(CCC(F)(F)F)CC3)C[C@@H]2c2ccc(Cl)cc2)cc1C(F)(F)F (racemic) [Example 110, N-{(3RS,4SR)-4-(4-Chloro-phenyl)-1-[1-(3,3,3-trifluoro-propyl)-piperidine-4-carbonyl]-pyrrolidin-3-yl}-4-methoxy-N-methyl-3-trifluoromethyl-benzamide]
20 | 0.9 nM | COCCN1CCC(C(=O)N2C[C@H](c3ccc(Cl)c(Cl)c3)[C@@H](N(C)C(=O)c3ccc(OC)c(C(F)(F)F)c3)C2)CC1 (racemic) [Example 144, N-{(3RS,4SR)-4-(3,4-Dichloro-phenyl)-1-[1-(2-methoxy-ethyl)-piperidine-4-carbonyl]-pyrrolidin-3-yl}-4-methoxy-N-methyl-3-trifluoromethyl-benzamide]
21 | 0.5 nM | C=C(F)CN1CCC(C(=O)N2C[C@H](c3ccc(Cl)c(Cl)c3)[C@@H](N(C)C(=O)c3ccc(OC)c(C(F)(F)F)c3)C2)CC1 (racemic) [Example 148, N-{(3RS,4SR)-4-(3,4-Dichloro-phenyl)-1-[1-(2-fluoro-allyl)-piperidine-4-carbonyl]-pyrrolidin-3-yl}-4-methoxy-N-methyl-3-trifluoromethyl-benzamide]
22 | 0.5 nM | CN(C(=O)c1ccc(Cl)c(C(F)(F)F)c1)[C@@H]1CN(C(=O)C2CCN(CC3CC3)CC2)C[C@H]1c1ccc(Cl)cc1 [Example 154, 4-Chloro-N-[(3S,4R)-4-(4-chloro-phenyl)-1-(1-cyclopropylmethyl-piperidine-4-carbonyl)-pyrrolidin-3-yl]-N-methyl-3-trifluoromethyl-benzamide]
23 | 0.5 nM | COc1ccc(C(=O)N(C)[C@H]2CN(C(=O)C3CCN(CC4CC4)CC3)C[C@@H]2c2ccc(Cl)c(Cl)c2)cc1C(F)(F)F (racemic) [Example 138, N-[(3RS,4SR)-1-(1-Cyclopropylmethyl-piperidine-4-carbonyl)-4-(3,4-dichloro-phenyl)-pyrrolidin-3-yl]-4-methoxy-N-methyl-3-trifluoromethyl-benzamide]
24 | 32.4 nM | CN(C(=O)Cc1ccc(F)cc1)[C@H]1CN(C(=O)C2CCN(C(=O)C3(C)CC3)CC2)C[C@@H]1c1ccc(Cl)c(Cl)c1 [Example 118, N-{(3R,4S)-4-(3,4-Dichloro-phenyl)-1-[1-(1-methyl-cyclopropanecarbonyl)-piperidine-4-carbonyl]-pyrrolidin-3-yl}-2-(4-fluoro-phenyl)-N-methyl-acetamide]
